Source: BindingDB's records for doi:10.7270/Q23F4N3R (Burnham Center For Chemical Genomics, 2011)

Experiment: HK1 enzyme inhibitors – biochemical, selectivity assay for HKDC1 inhibitor project, dose response (AID 504763)
[1] = inactive by the depositor's call

For Nc1ccc(S(=O)(=O)c2cc(O)c3ccccc3c2O)cc1 [SMR001570953], which IC50 [1] is on record?
The IC50 was 59.9 µM.

Which IC50 does the source give for CC(OC(=O)c1cc(O)c2ccccc2c1O)C(=O)Nc1ccc(C(N)=O)cc1 (stereo unspecified) [[1-[(4-aminocarbonylphenyl)amino]-1-oxidanylidene-propan-2-yl] 1,4-bis(oxidanyl)naphthalene-2-carboxylate] here?
Its IC50 is over 80 µM.

For O=C(COC(=O)c1n[nH]c2ccccc12)c1cccc(Br)c1 [[2-(3-bromophenyl)-2-oxoethyl] 1H-indazole-3-carboxylate], which IC50 is on record?
Its IC50 is over 80 µM.

For COc1ccc(S(=O)(=O)Nc2cc(SCC(=O)O)c(O)c3ccccc23)cc1 [[(1-hydroxy-4-{[(4-methoxyphenyl)sulfonyl]amino}-2-naphthyl)thio]acetic acid], which IC50 [1] is on record?
The IC50 was 63.3 µM.

With CCOC(=O)c1c(-n2c(C)cc(C=C3C(=O)NC(=S)NC3=O)c2C)sc2c1CCCC2 [ethyl 2-{3-[(4,6-dioxo-2-thioxotetrahydro-5(2H)-pyrimidinylidene)methyl]-2,5-dimethyl-1H-pyrrol-1-yl}-4,5,6,7-tetrahydro-1-benzothiophene-3-carboxylate] as the molecule, how does the IC50 read?
Its IC50 is over 80 µM.

With CCOC(=O)C1=C(Cc2ccc(F)cc2)C(=O)c2ccccc2C1=O [ethyl 3-(4-fluorobenzyl)-1,4-dioxo-1,4-dihydro-2-naphthalenecarboxylate] as the molecule, how does the IC50 [1] read?
Its IC50 is 25.4 µM.

With CCOC(=O)C1=C(Cc2ccc(Cl)cc2)C(=O)c2ccccc2C1=O [ethyl 3-[(4-chlorophenyl)methyl]-1,4-bis(oxidanylidene)naphthalene-2-carboxylate] as the molecule, how does the IC50 [1] read?
Its IC50 is 22.2 µM.

With CCOC(=O)c1ccc(NC(=O)CSc2ccc(-c3ccccn3)nn2)cc1 [ethyl 4-[2-(6-pyridin-2-ylpyridazin-3-yl)sulfanylethanoylamino]benzoate] as the molecule, how does the IC50 read?
The IC50 was 2.15 µM.

For COC(=O)C[C@]1(C(=O)OC)CN(C#N)N(c2ccc(Cl)cc2)C12c1ccccc1-c1ccccc12 [methyl 1-(4-chlorophenyl)-2-cyano-4-(2-methoxy-2-oxoethyl)spiro[pyrazolidine-5,9'-(9'H)-fluorene]-4-carboxylate], which IC50 is on record?
The IC50 was over 80 µM.

With COC(=O)c1ccccc1NC1=CC(=NS(=O)(=O)c2cccs2)c2ccccc2C1=O [methyl 2-[[(4E)-1-oxidanylidene-4-thiophen-2-ylsulfonylimino-naphthalen-2-yl]amino]benzoate] as the molecule, how does the IC50 [1] read?
The IC50 was 57 µM.

With O=C(O)c1ccccc1-c1c2cc(I)c(=O)c(I)c-2oc2c(I)c(O)c(I)cc12 [sodium;2-(2,4,5,7-tetraiodo-3-oxido-6-oxo-9-xanthenyl)benzoate] as the molecule, how does the IC50 read?
The IC50 was 47.2 µM.
